Data from patent US20230287138A1, “PROTEIN-DRUG CONJUGATES COMPRISING CAMPTOTHECIN ANALOGS AND METHODS OF USE THEREOF” (Regneron Pharmaceuticals, Inc., priority 2022, published 2023).
Counter-ions that a name gives are not always drawn. Like-named read-outs stand apart in the source and are kept apart here.

System: HCT-15
Test: HCT-15 data of payloads and linker-payloads (EC50, with or without verapamil)
Format: cell-based
[1] = Homo sapiens, payload, HCT-15 cells, no verapamil, read-out: HCT-15 EC50
[2] = payload, HCT-15 cells plus verapamil, read-out: HCT-15 + verapamil EC50
[3] = Homo sapiens, linker-payload, HCT-15 cells, read-out: HCT-15 EC50

Row | SMILES | EC50 [1] | EC50 [2] | EC50 [3] | EC50 (Homo sapiens, payload, HCT-15 cells plus verapamil, read-out: HCT-15 + verapamil EC50)
1 | CC[C@@]1(O)C(=O)OCc2c1cc1n(c2=O)Cc2c-1nc1ccccc1c2CCN(CCO)C(C)C [P10, (19S)-19-ethyl-19-hydroxy-10-{2-[(2-hydroxyethyl)(propan-2-yl)amino]ethyl}-17-oxa-3,13-diazapentacyclo[11.8.0.0^2,^11.0^4,^9.0^15,^20]henicosa-1(21),2,4,6,8,10,15(20)-heptaene-14,18-dione] | 8.6 nM | 4.38 nM | – | –
2 | CC[C@@]1(O)C(=O)OCc2c1cc1n(c2=O)Cc2c-1nc1cc(F)c(C)c3c1c2[C@@H](NC(=O)OCc1ccc(NC(=O)[C@H](CCCNC(N)=O)NC(=O)[C@@H](NC(=O)CCOCCOCCOCCOCCNC(=O)COC2C#CCCCCC2)C(C)C)cc1)CC3 (stereo partly drawn) [LP1, {4-[(2S)-5-(Carbamoylamino)-2-[(2S)-2-{1-[2-(cyclooct-2-yn-1-yloxy)acetamido]-3,6,9,12-tetraoxapentadecan-15-amido}-3-methylbutanamido]pentanamido]phenyl}methyl N-[(10S,23S)-10-ethyl-18-fluoro-10-hydroxy-19-methyl-5,9-dioxo-8-oxa-4,15-diazahexacyclo[14.7.1.0^2,^14.0^4,^13.0^6,^11.0^20,^24]tetracosa-1,6(11),12,14,16,18,20(24)-heptaen-23-yl]carbamate] | – | – | 289 nM | –
3 | CC[C@@]1(O)C(=O)OCc2c1cc1n(c2=O)Cc2c-1nc1ccc(OC)cc1c2CN(C)Cc1ccc(OC)cc1 [P25, (S)-4-ethyl-4-hydroxy-9-methoxy-11-(((4-methoxybenzyl)(methyl)amino)methyl)-1,12-dihydro-14H-pyrano[3′,4′:6,7]indolizino[1,2-b]quinoline-3,14(4H)-dione] | 46.8 nM | – | – | –
4 | CC[C@@]1(O)C(=O)OCc2c1cc1n(c2=O)Cc2cc3cc(O)ccc3nc2-1 [P14, 10-hydroxy camptothecin, reference compound] | 11.6 nM | 6.79 nM | – | –
5 | CC[C@@]1(O)C(=O)OCc2c1cc1n(c2=O)Cc2c-1nc1ccc(OC)cc1c2Cn1cc(Cc2ccccc2)nn1 [P28, (S)-11-((4-benzyl-1H-1,2,3-triazol-1-yl)methyl)-4-ethyl-4-hydroxy-9-methoxy-1,12-dihydro-14H-pyrano[3′,4′:6,7]indolizino[1,2-b]quinoline-3,14(4H)-dione] | 34.2 nM | – | – | –
6 | CC[C@@]1(O)C(=O)OCc2c1cc1n(c2=O)Cc2c-1nc1ccc(OC)cc1c2CN [P22, (19S)-10-(Aminomethyl)-19-ethyl-19-hydroxy-7-methoxy-17-oxa-3,13-diazapentacyclo[11.8.0.0^2,^11.0^4,^9.0^15,^20]henicosa-1(21),2,4,6,8,10,15(20)-heptaene-14,18-dione] | 31.9 nM | 40.5 nM | – | –
7 | CC[C@@]1(O)C(=O)OCc2c1cc1n(c2=O)Cc2c-1nc1cc(F)c(C)c3c1c2[C@@H](NC(=O)[C@@H](N)CCCCNC(=O)OCc1ccc(NC(=O)[C@H](CCCNC(N)=O)NC(=O)[C@@H](NC(=O)CCOCCOCCOCCOCCNC(=O)COC2C#CCCCCC2)C(C)C)cc1)CC3 (stereo partly drawn) [LP11, {4-[(2S)-5-(carbamoylamino)-2-[(2S)-2-{1-[2-(cyclooct-2-yn-1-yloxy)acetamido]-3,6,9,12-tetraoxapentadecan-15-amido}-3-methylbutanamido]pentanamido]phenyl}methyl N-[(5S)-5-amino-5-{[(10S,23S)-10-ethyl-18-fluoro-10-hydroxy-19-methyl-5,9-dioxo-8-oxa-4,15-diazahexacyclo[14.7.1.0^2,^14.0^4,^13.0^6,^11.0^20,^24]tetracosa-1,6(11),12,14,16,18,20(24)-heptaen-23-yl]carbamoyl}pentyl]carbamate] | – | – | 208 nM | –
8 | CC[C@@]1(O)C(=O)OCc2c1cc1n(c2=O)Cc2c-1nc1cc(F)c(C)c3c1c2[C@@H](NC(=O)CN)CC3 [P2, 2-Amino-N-[(10S,23S)-10-ethyl-18-fluoro-10-hydroxy-19-methyl-5,9-dioxo-8-oxa-4,15-diazahexacyclo[[14.7.1.0^2,^14.0^4,^13.0^6,^11.0^20,^24]]tetracosa-1,6(11),12,14,16,18,20(24)-heptaen-23-yl]acetamide] | 61.9 nM | 14.3 nM | – | –
9 | CC[C@@]1(O)C(=O)OCc2c1cc1n(c2=O)Cc2c-1nc1cc(F)c(C)c3c1c2[C@@H](NS(C)(=O)=O)CC3 [P6, N-[(10S,23S)-10-ethyl-18-fluoro-10-hydroxy-19-methyl-5,9-dioxo-8-oxa-4,15-diazahexacyclo[[14.7.1.0^2,^14.0^4,^13.0^6,^11.0^20,^24]]tetracosa-1,6(11),12,14,16,18,20(24)-heptaen-23-yl]methanesulfonamide] | 7.45 nM | 3.16 nM | – | –
10 | CC[C@@]1(O)C(=O)OCc2c1cc1n(c2=O)Cc2cc3cc(OC)ccc3nc2-1 [P15, (19S)-19-Ethyl-19-hydroxy-7-methoxy-17-oxa-3,13-diazapentacyclo[11.8.0.0^2,^11.0^4,^9.0^15,^20]henicosa-1(21),2,4,6,8,10,15(20)-heptaene-14,18-dione] | 6.99 nM | 4.47 nM | – | –
11 | CC[C@@]1(O)C(=O)OCc2c1cc1n(c2=O)Cc2c-1nc1ccc(OC)cc1c2CO [P20, (19S)-19-Ethyl-19-hydroxy-10-(hydroxymethyl)-7-methoxy-17-oxa-3,13-diazapentacyclo[11.8.0.0^2,^11.0^4,^9.0^15,^20]henicosa-1(21),2,4,6,8,10,15(20)-heptaene-14,18-dione] | 3.69 nM | 2.4 nM | – | –
12 | CC[C@@](O)(C(=O)NCCN)c1cc2n(c(=O)c1COC(C)=O)Cc1c-2nc2cc(F)c(C)c3c2c1[C@@H](NC(=O)COC(C)=O)CC3 [P13, {[(19S)-6-[(Acetyloxy)methyl]-7-[(1 S)-1-[(2-aminoethyl)carbamoyl]-1-hydroxypropyl]-14-fluoro-15-methyl-5-oxo-4,11-diazapentacyclo[10.7.1.0^2,^10.0^4,^9.0^16,^20]icosa-1,6,8,10,12,14,16(20)-heptaen-19-yl]carbamoyl}methyl acetate] | 134 nM | – | – | –
13 | CC[C@@]1(O)C(=O)OCc2c1cc1n(c2=O)Cc2c-1nc1cc(F)c(C)c3c1c2[C@@H](NC(=O)[C@H](CCC(=O)O)NC(=O)OCc1ccc(NC(=O)[C@H](CCCNC(N)=O)NC(=O)[C@@H](NC(=O)CCOCCOCCOCCOCCNC(=O)COC2C#CCCCCC2)C(C)C)cc1)CC3 (stereo partly drawn) [LP9, (4S)-4-{[({4-[(2S)-5-(carbamoylamino)-2-[(2S)-2-{1-[2-(cyclooct-2-yn-1-yloxy)acetamido]-3,6,9,12-tetraoxapentadecan-15-amido}-3-methylbutanamido]pentanamido]phenyl}methoxy)carbonyl]amino}-4-{[(10S,23S)-10-ethyl-18-fluoro-10-hydroxy-19-methyl-5,9-dioxo-8-oxa-4,15-diazahexacyclo[14.7.1.0^2,^14.0^4,^13.0^6,^11.0^20,^24]tetracosa-1,6(11),12,14,16,18,20(24)-heptaen-23-yl]carbamoyl}butanoic acid] | – | – | 722 nM | –
14 | CC[C@@]1(O)C(=O)OCc2c1cc1n(c2=O)Cc2c-1nc1ccc(OC)cc1c2CNCc1ccccc1 [P26, (S)-11-((benzylamino)methyl)-4-ethyl-4-hydroxy-9-methoxy-1,12-dihydro-14H-pyrano[3′,4′:6,7]indolizino[1,2-b]quinoline-3,14(4H)-dione] | 51.9 nM | – | – | –
15 | CC[C@@]1(O)C(=O)OCc2c1cc1n(c2=O)Cc2c-1nc1cc(F)c(C)c3c1c2[C@@H](NC(=O)OCc1ccc(O[C@@H]2O[C@H](CO)[C@@H](O)[C@H](O)[C@H]2O)c(C(=O)NCCNC(=O)COC2C#CCCCCC2)c1)CC3 (stereo partly drawn) [LP4, [3-({2-[2-(Cyclooct-2-yn-1-yloxy)acetamido]ethyl}carbamoyl)-4-{[(2S,3R,4S,5S,6R)-3,4,5-trihydroxy-6-(hydroxymethyl)oxan-2-yl]oxy}phenyl]methyl N-[(10S,23S)-10-ethyl-18-fluoro-10-hydroxy-19-methyl-5,9-dioxo-8-oxa-4,15-diazahexacyclo[14.7.1.0^2,^14.0^4,^13.0^6,^11.0^20,^24]tetracosa-1,6(11),12,14,16,18,20(24)-heptaen-23-yl]carbamate] | – | – | 363 nM | –
16 | CC[C@@]1(O)C(=O)OCc2c1cc1n(c2=O)Cc2c-1nc1cc(F)c(C)c3c1c2[C@@H](NC(=O)OCc1ccc(NC(=O)[C@H](CCCNC(N)=O)NC(=O)[C@@H](NC(=O)CCOCCOCCOCCOCCNC(=O)CCC(=O)N2Cc4ccccc4C#Cc4ccccc42)C(C)C)cc1)CC3 [LP2] | – | – | 145 nM | –
17 | CC[C@@]1(O)C(=O)OCc2c1cc1n(c2=O)Cc2c-1nc1cc(F)c(C)c3c1c2[C@@H](N)CC3 [P1, Exatecan mesylate, reference compound] | 1.22 nM | 1.13 nM | – | –
18 | CC[C@@]1(O)C(=O)OCc2c1cc1n(c2=O)Cc2c-1nc1cc(F)c(C)c3c1c2[C@@H](NC(=O)CO)CC3 [P12, Dxd, reference compound] | 7.99 nM | – | – | 4.18 nM
19 | CC[C@@]1(O)C(=O)OCc2c1cc1n(c2=O)Cc2c-1nc1ccc(OC)cc1c2Cn1nnc2c1CCCCCC2OCC(=O)O (stereo partly drawn) [P27, 2-((1-(((S)-4-ethyl-4-hydroxy-9-methoxy-3,14-dioxo-3,4,12,14-tetrahydro-1H-pyrano[3′,4′:6,7]indolizino[1,2-b]quinolin-11-yl)methyl)-4,5,6,7,8,9-hexahydro-1H-cycloocta[d][1,2,3]triazol-4-yl)oxy)acetic acid] | 78.8 nM | – | – | –
20 | CC[C@@]1(O)C(=O)OCc2c1cc1n(c2=O)Cc2c-1nc1cc(F)c(C)c3c1c2[C@@H](NC(=O)[C@@H](N)CCCCN)CC3 [P4, (2S)-2,6-diamino-N-[(10S,23S)-10-ethyl-18-fluoro-10-hydroxy-19-methyl-5,9-dioxo-8-oxa-4,15-diazahexacyclo[[14.7.1.0^2,^14.0^4,^13.0^6,^11.0^20,^24]]tetracosa-1,6(11),12,14,16,18,20(24)-heptaen-23-yl]hexanamide] | 447 nM | 581 nM | – | –
21 | CC[C@@]1(O)C(=O)OCc2c1cc1n(c2=O)Cc2c-1nc1ccc(OC)cc1c2CNCCCN=[N+]=[N-] [P23, (S)-11-(((3-azidopropyl)amino)methyl)-4-ethyl-4-hydroxy-9-methoxy-1,12-dihydro-14H-pyrano[3′,4′:6,7]indolizino[1,2-b]quinoline-3,14(4H)-dione] | 36.7 nM | – | – | –
